Data reported in the supplement of paper PMC10733146.

Experiments:
Test in all cases: viability relative to DMSO control (fraction); higher = less drug effect (more viable cells)
Conditions in all cases: 48 h
[1] = system: primary AML patient cells (S055)
Outline: (§1)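 Viability was measured as CellTiter-Glo luminescence relative to the median of 16 inner DMSO wells. Primary mononuclear tumour cells, fresh or cryopreserved, were Ficoll-isolated from blood or bone marrow or taken from processed lymph node. They were seeded at 4 × 10^4 cells per well into 384-well plates holding pre-plated compounds at five concentrations, one well each, and kept in RPMI-1640 with penicillin/streptomycin, L-glutamine and human serum at 37 °C and 5% CO2 for 48 h.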

[2] = system: primary AML patient cells (S006)
Outline: as §1

[3] = system: primary MCL patient cells (S041)
Outline: as §1

[4] = system: primary DLBCL patient cells (S082)
Outline: as §1

[5] = system: primary AML patient cells (S009)
Outline: as §1

[6] = system: primary ALL patient cells (S088)
Outline: as §1

[7] = system: primary AML patient cells (S021)
Outline: as §1

[8] = system: primary AML patient cells (S081)
Outline: as §1

[9] = system: primary AML patient cells (S011)
Outline: as §1

[10] = system: primary B-PLL patient cells (S016)
Outline: as §1

[11] = system: primary T-PLL patient cells (S008)
Outline: as §1

[12] = system: primary AML patient cells (S060)
Outline: as §1

[13] = system: primary MCL patient cells (S063)
Outline: as §1

[14] = system: primary FL patient cells (S087)
Outline: as §1

SMILES: N#Cc1ccnc(N2C(=O)CC[C@H]2C(=O)N(c2cncc(F)c2)[C@H](C(=O)NC2CC(F)(F)C2)c2ccccc2Cl)c1 [AG-120]
- viability ([1]; 0.024 µM): 1.11
- viability ([1]; 0.12 µM): 1.13
- viability ([1]; 0.6 µM): 1.01
- viability ([1]; 3 µM): 1.09
- viability ([1]; 15 µM): 0.964
- viability ([2]; 0.024 µM): 1.07
- viability ([2]; 0.12 µM): 1.13
- viability ([2]; 0.6 µM): 0.986
- viability ([2]; 3 µM): 1.08
- viability ([2]; 15 µM): 0.901
- viability ([3]; 0.024 µM): 0.99
- viability ([3]; 0.12 µM): 1.01
- viability ([3]; 0.6 µM): 0.928
- viability ([3]; 3 µM): 1
- viability ([3]; 15 µM): 0.886
- viability ([4]; 0.024 µM): 1.03
- viability ([4]; 0.12 µM): 1.06
- viability ([4]; 0.6 µM): 0.895
- viability ([4]; 3 µM): 1.05
- viability ([4]; 15 µM): 0.935
- viability ([5]; 0.024 µM): 0.974
- viability ([5]; 0.12 µM): 0.96
- viability ([5]; 0.6 µM): 1.04
- viability ([5]; 3 µM): 0.943
- viability ([5]; 15 µM): 0.915
- viability ([6]; 0.024 µM): 0.727
- viability ([6]; 0.12 µM): 0.745
- viability ([6]; 0.6 µM): 0.533
- viability ([6]; 3 µM): 0.7
- viability ([6]; 15 µM): 0.499
- viability ([7]; 0.024 µM): 0.985
- viability ([7]; 0.12 µM): 0.875
- viability ([7]; 0.6 µM): 0.743
- viability ([7]; 3 µM): 0.761
- viability ([7]; 15 µM): 0.692
- viability ([8]; 0.024 µM): 0.994
- viability ([8]; 0.12 µM): 1.01
- viability ([8]; 0.6 µM): 0.925
- viability ([8]; 3 µM): 1.11
- viability ([8]; 15 µM): 0.968
- viability ([9]; 0.024 µM): 1.76
- viability ([9]; 0.12 µM): 0.843
- viability ([9]; 0.6 µM): 0.852
- viability ([9]; 3 µM): 0.785
- viability ([9]; 15 µM): 0.657
- viability ([10]; 0.024 µM): 1.16
- viability ([10]; 0.12 µM): 1.18
- viability ([10]; 0.6 µM): 1
- viability ([10]; 3 µM): 1.12
- viability ([10]; 15 µM): 0.86
- viability ([11]; 0.024 µM): 1.04
- viability ([11]; 0.12 µM): 1.09
- viability ([11]; 0.6 µM): 1.03
- viability ([11]; 3 µM): 1.04
- viability ([11]; 15 µM): 1.02
- viability ([12]; 0.024 µM): 1.05
- viability ([12]; 0.12 µM): 1.1
- viability ([12]; 0.6 µM): 0.937
- viability ([12]; 3 µM): 1.16
- viability ([12]; 15 µM): 0.938
- viability ([13]; 0.024 µM): 1.16
- viability ([13]; 0.12 µM): 1.1
- viability ([13]; 0.6 µM): 0.929
- viability ([13]; 3 µM): 1.15
- viability ([13]; 15 µM): 0.789
- viability ([14]; 0.024 µM): 0.946
- viability ([14]; 0.12 µM): 0.984
- viability ([14]; 0.6 µM): 0.911
- viability ([14]; 3 µM): 1.01
- viability ([14]; 15 µM): 0.892

SMILES: Nc1ncn([C@H]2C[C@H](O)[C@@H](CO)O2)c(=O)n1 [Decitabine (Dacogen)]
- viability ([1]; 0.024 µM): 1.05
- viability ([1]; 0.12 µM): 0.939
- viability ([1]; 0.6 µM): 1.03
- viability ([1]; 3 µM): 0.972
- viability ([1]; 15 µM): 1.02
- viability ([2]; 0.024 µM): 0.971
- viability ([2]; 0.12 µM): 0.877
- viability ([2]; 0.6 µM): 1
- viability ([2]; 3 µM): 0.747
- viability ([2]; 15 µM): 0.716
- viability ([3]; 0.024 µM): 1.06
- viability ([3]; 0.12 µM): 0.969
- viability ([3]; 0.6 µM): 1.06
- viability ([3]; 3 µM): 0.961
- viability ([3]; 15 µM): 0.984
- viability ([4]; 0.024 µM): 0.993
- viability ([4]; 0.12 µM): 0.936
- viability ([4]; 0.6 µM): 0.973
- viability ([4]; 3 µM): 0.908
- viability ([4]; 15 µM): 0.967
- viability ([5]; 0.024 µM): 0.915
- viability ([5]; 0.12 µM): 0.951
- viability ([5]; 0.6 µM): 0.854
- viability ([5]; 3 µM): 0.859
- viability ([5]; 15 µM): 0.702
- viability ([6]; 0.024 µM): 0.978
- viability ([6]; 0.12 µM): 0.886
- viability ([6]; 0.6 µM): 0.982
- viability ([6]; 3 µM): 0.778
- viability ([6]; 15 µM): 0.799
- viability ([7]; 0.024 µM): 1.17
- viability ([7]; 0.12 µM): 0.973
- viability ([7]; 0.6 µM): 1.03
- viability ([7]; 3 µM): 0.942
- viability ([7]; 15 µM): 0.818
- viability ([8]; 0.024 µM): 1.05
- viability ([8]; 0.12 µM): 0.898
- viability ([8]; 0.6 µM): 1.05
- viability ([8]; 3 µM): 0.912
- viability ([8]; 15 µM): 0.931
- viability ([9]; 0.024 µM): 0.963
- viability ([9]; 0.12 µM): 0.887
- viability ([9]; 0.6 µM): 1.1
- viability ([9]; 3 µM): 0.887
- viability ([9]; 15 µM): 0.956
- viability ([10]; 0.024 µM): 0.927
- viability ([10]; 0.12 µM): 0.83
- viability ([10]; 0.6 µM): 0.972
- viability ([10]; 3 µM): 0.874
- viability ([10]; 15 µM): 0.88
- viability ([11]; 0.024 µM): 0.968
- viability ([11]; 0.12 µM): 1.02
- viability ([11]; 0.6 µM): 0.953
- viability ([11]; 3 µM): 1.08
- viability ([11]; 15 µM): 1.01
- viability ([12]; 0.024 µM): 1.01
- viability ([12]; 0.12 µM): 0.975
- viability ([12]; 0.6 µM): 1.02
- viability ([12]; 3 µM): 0.99
- viability ([12]; 15 µM): 1.01
- viability ([13]; 0.024 µM): 1.03
- viability ([13]; 0.12 µM): 0.985
- viability ([13]; 0.6 µM): 1.03
- viability ([13]; 3 µM): 0.974
- viability ([13]; 15 µM): 0.977
- viability ([14]; 0.024 µM): 0.969
- viability ([14]; 0.12 µM): 0.89
- viability ([14]; 0.6 µM): 0.981
- viability ([14]; 3 µM): 0.864
- viability ([14]; 15 µM): 0.966
